In paper PMC8348983 (International Journal of Molecular Sciences, 2021):
Entries after “also recorded” stand apart in the source; their conditions may differ. Like-named read-outs stand apart in the source and are kept apart here.

Tests used:
human recombinant AChE [1] = target: T1, human recombinant AChE (Homo sapiens, UniProt P22303); assay: biochemical; type: biochemical; conditions: for IC50: mean ± SEM of three independent measurements, each in triplicate, read-out: IC50, hAChE ± SEM; for inhibition at 100 µM: tested at 100 µM compound concentration, read-out: %Inhibition hAChE ± SEM
T1 sequence (P22303 32-614): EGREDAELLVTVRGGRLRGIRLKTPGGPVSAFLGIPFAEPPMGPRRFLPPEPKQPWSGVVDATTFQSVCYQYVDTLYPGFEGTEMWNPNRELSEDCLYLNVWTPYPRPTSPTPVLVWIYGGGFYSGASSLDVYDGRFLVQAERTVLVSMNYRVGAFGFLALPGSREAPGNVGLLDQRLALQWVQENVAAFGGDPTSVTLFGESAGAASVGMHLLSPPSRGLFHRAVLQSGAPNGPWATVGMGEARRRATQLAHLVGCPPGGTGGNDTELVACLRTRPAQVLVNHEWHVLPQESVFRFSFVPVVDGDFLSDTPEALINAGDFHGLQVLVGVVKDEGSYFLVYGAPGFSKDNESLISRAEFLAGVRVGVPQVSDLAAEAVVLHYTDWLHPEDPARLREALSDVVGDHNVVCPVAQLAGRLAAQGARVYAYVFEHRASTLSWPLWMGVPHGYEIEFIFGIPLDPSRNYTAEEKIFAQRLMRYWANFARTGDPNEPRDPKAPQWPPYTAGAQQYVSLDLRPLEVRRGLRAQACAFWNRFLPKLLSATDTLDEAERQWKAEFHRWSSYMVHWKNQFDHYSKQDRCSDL

human plasma BChE = target: T2, human plasma BChE (Homo sapiens, UniProt P06276); assay: biochemical; type: biochemical; conditions: for IC50: mean ± SEM of three independent measurements, each in triplicate, read-out: IC50, hBuChE ± SEM; for SI for hBuChE: ratio hAChE IC50/hBuChE IC50; for inhibition at 100 µM: tested at 100 µM compound concentration, read-out: % Inhibition hBuChE ± SEM
T2 construct: was used as a source of BChE and was prepared from heparinized human blood; from tissue; host or cells: human plasma from heparinized human blood
T2 sequence (P06276 29-602): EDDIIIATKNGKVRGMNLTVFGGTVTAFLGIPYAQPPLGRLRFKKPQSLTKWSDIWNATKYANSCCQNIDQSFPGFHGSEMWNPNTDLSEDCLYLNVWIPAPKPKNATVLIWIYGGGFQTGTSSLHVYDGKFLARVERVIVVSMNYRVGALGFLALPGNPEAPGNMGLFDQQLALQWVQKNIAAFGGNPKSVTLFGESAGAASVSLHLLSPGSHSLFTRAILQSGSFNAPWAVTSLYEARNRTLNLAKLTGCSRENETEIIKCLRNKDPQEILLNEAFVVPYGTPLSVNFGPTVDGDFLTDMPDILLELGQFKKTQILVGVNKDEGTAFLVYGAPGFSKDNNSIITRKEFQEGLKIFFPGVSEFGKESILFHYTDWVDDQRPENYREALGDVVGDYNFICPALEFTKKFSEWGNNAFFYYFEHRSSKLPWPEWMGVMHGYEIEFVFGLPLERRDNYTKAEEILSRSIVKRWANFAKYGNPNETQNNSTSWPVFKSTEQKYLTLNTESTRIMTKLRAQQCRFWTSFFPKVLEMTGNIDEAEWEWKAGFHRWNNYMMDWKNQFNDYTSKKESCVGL

[2] = target: POP (prolyloligopeptidase) (Homo sapiens, UniProt P48147); assay: POP inhibition assay; type: biochemical; conditions: bounds marked f: highest tested concentration due to low solubility in buffer; read-out: IC50, POP ± SEM
Chain of POP (prolyloligopeptidase) (P48147 whole entry): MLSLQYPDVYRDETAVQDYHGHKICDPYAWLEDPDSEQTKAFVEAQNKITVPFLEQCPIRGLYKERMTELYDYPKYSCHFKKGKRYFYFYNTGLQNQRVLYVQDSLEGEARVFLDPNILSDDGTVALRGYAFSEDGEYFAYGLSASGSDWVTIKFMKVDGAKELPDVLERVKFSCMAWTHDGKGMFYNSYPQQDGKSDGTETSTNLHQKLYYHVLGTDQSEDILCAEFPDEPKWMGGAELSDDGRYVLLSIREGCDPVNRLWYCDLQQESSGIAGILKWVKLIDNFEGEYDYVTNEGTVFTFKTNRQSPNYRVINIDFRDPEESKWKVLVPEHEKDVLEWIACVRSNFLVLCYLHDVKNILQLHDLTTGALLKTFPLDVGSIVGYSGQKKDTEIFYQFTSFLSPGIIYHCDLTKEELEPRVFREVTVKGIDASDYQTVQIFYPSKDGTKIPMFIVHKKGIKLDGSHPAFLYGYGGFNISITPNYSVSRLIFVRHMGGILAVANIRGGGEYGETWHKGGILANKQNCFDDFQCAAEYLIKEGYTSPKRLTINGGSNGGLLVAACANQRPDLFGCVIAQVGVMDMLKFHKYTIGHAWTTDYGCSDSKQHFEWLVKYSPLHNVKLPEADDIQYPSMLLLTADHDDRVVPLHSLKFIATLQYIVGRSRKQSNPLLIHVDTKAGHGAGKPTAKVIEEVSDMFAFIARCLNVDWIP
Procedure: The previously applied procedure was used. Detailed description of the assay can be found in Supplementary Materials.
POP (EC 3.4.21.26) was dissolved in phosphate-buffered saline (PBS; 0.01 M Na/K phosphate buffer, […]
The assay was performed in standard polystyrene 96-well microplates with a flat and clear bottom.
Stock solutions of tested compounds were prepared in DMSO (10 mM). Dilutions (10−3 to 10−7 M) were prepared from the stock solution with deionized H2O; the control was performed with the same DMSO concentration. POP substrate, (Z)-Gly-Pro-p-nitroanilide, was dissolved in 50% 1,4-dioxane (5 mM). For each reaction, PBS (170 μL), tested compound (5 μL), and POP (5 μL) were incubated for 5 min at 37 °C. Then, substrate (20 μL) was added, and the microplate was incubated for 30 min at 37 °C. The formation of p-nitroanilide, directly proportional to the POP activity, was measured […]
Synergy 2, BioTek Instruments, Winooski, VT). The inhibition potency of tested compounds was calculated by nonlinear regression analysis and was expressed as an IC50 value (concentration of inhibitor which causes 50% POP inhibition). […]

human recombinant AChE [3] = target: T1, human recombinant AChE; design: method as in PMID 32455879; conditions: template alkaloids, Figure 1; read-out: IC50,hAChE; cited from earlier work

| Structure (SMILES) | IC50 (human recombinant AChE [1]) [µM] | inhibition at 100 µM (human recombinant AChE [1]) [%] | IC50 (human plasma BChE) [µM] | SI for hBuChE (human plasma BChE) | inhibition at 100 µM (human plasma BChE) [%] | IC50 [2] [µM] | IC50 (human recombinant AChE [3]) [µM] | hAChE inhibition potency (in words) (human recombinant AChE [1]; screening at 100 µM) | hBuChE inhibition potency (in words) (human plasma BChE; screening at 100 µM) |
| --- | --- | --- | --- | --- | --- | --- | --- | --- | --- |
| CCOc1cc(CNCCc2ccc(O)cc2)ccc1OC [Compound 15, N-(3-ethoxy-4-methoxybenzyl)-2-(4-hydroxyphenyl)ethan-1-amine] | > 100 | 25.8 ± 1.3 | 15.1 ± 2.34 | >6 | 75.3 ± 0.6 | – | – | – | – |
| COc1ccc(CNCCc2ccc(O)cc2)cc1OCc1ccccc1 [Compound 2, N-(3-benzyloxy-4-methoxybenzyl)-2-(4-hydroxyphenyl)ethan-1-amine] | > 100 | 35.8 ± 1.2 | 0.29 ± 0.02 | >348 | 97.7 ± 0.5 | > 79 | – | – | – |
| COc1ccc(CNCCc2ccccc2)cc1OCc1ccccc1 [Compound 8, N-(3-benzyloxy-4-methoxybenzyl)-2-phenylethan-1-amine] | > 100 | 12.6 ± 0.5 | 1.1 ± 0.05 | >90 | 96.6 ± 0.4 | – | – | – | – |
| COc1cc(CNCCc2ccccc2)ccc1OCc1ccccc1 [Compound 7, N-(4-benzyloxy-3-methoxybenzyl)-2-phenylethan-1-amine] | > 100 | 23.4 ± 2.5 | 1.28 ± 0.05 | >78 | 94.5 ± 0.9 | – | – | – | – |
| CCOc1cc(CN(CCc2ccccc2)Cc2ccccc2)ccc1OC [Compound 20, N-benzyl-N-(3-ethoxy-4-methoxybenzyl)-2-phenylethan-1-amine] | > 100 | 49.5 ± 0.8 | 0.69 ± 0.03 | >145 | 82.5 ± 1 | – | – | – | – |
| COc1cc(CN(C)CCc2ccc(O)cc2)c(-c2cccc3c2N(C)CC3)cc1OC [carltonine A] | – | – | – | – | – | – | > 100 | – | – |
| C=CCN(CCc1ccccc1)Cc1ccc(OC)c(OCC)c1 [Compound 19, N-allyl-N-(3-ethoxy-4-methoxybenzyl)-2-phenylethan-1-amine] | > 100 | 5.9 ± 2.1 | 4.63 ± 0.48 | >22 | 80.2 ± 0.2 | – | – | – | – |
| C=CCN(CCc1ccc(O)cc1)Cc1ccc(OC)c(OCc2ccccc2)c1 [Compound 4, N-allyl-N-(3-benzyloxy-4-methoxybenzyl)-2-(4-hydroxyphenyl)ethan-1-amine] | > 100 | 45.2 ± 2.4 | 0.25 ± 0.01 | >394 | 97.9 ± 0.6 | > 79 | – | – | – |
| C=CCN(CCc1ccc(O)cc1)Cc1ccc(OCc2ccccc2)c(OC)c1 [Compound 3, N-allyl-N-(4-benzyloxy-3-methoxybenzyl)-2-(4-hydroxyphenyl)ethan-1-amine] | > 100 | 20.8 ± 0.9 | 0.61 ± 0.04 | >163 | 96.8 ± 1.1 | > 200 | – | – | – |
| C=CCOc1ccc(CCN(CC=C)Cc2ccc(OC)c(OCC)c2)cc1 [Compound 17, N-allyl-N-(3-ethoxy-4-methoxybenzyl)-2-(4-allyloxyphenyl)ethan-1-amine] | > 100 | 29.3 ± 3.9 | 9.89 ± 1.37 | – | 77 ± 1 | – | – | – | – |
| C=CCN(CCc1ccc(OC)cc1)Cc1ccc(OCc2ccccc2)c(OC)c1 [Compound 13, N-allyl-N-(4-benzyloxy-3-methoxybenzyl)-2-(4-methoxyphenyl)ethan-1-amine] | > 100 | 32.7 ± 1.6 | 2.72 ± 0.5 | >37 | 90.9 ± 1.5 | – | – | – | – |
| C=CCN(CCc1ccccc1)Cc1ccc(OCc2ccccc2)c(OC)c1 [Compound 9, N-allyl-N-(4-benzyloxy-3-methoxybenzyl)-2-phenylethan-1-amine] | > 100 | 18.8 ± 1.9 | 5.19 ± 0.28 | >19 | 74.9 ± 2.4 | – | – | – | – |
| CN(CCc1ccc(O)cc1)Cc1cc2c(cc1-c1cccc3c1N(C)CC3)OCO2 [carltonine B] | – | – | – | – | – | – | > 100 | – | – |
| C=CCN(CCc1ccc(OC)cc1)Cc1ccc(OC)c(OCc2ccccc2)c1 [Compound 14, N-allyl-N-(3-benzyloxy-4-methoxybenzyl)-2-(4-methoxyphenyl)ethan-1-amine] | 37.7 | 60.9 ± 0.4 | 0.38 ± 0.01 | 98 | 95.8 ± 0.9 | – | – | – | – |
| C=CCN(CCc1ccccc1)Cc1ccc(OC)c(OCc2ccccc2)c1 [Compound 10, N-allyl-N-(3-benzyloxy-4-methoxybenzyl)-2-phenylethan-1-amine] | 21.5 | 72.4 ± 1.1 | 1.17 ± 0.04 | 18 | 92 ± 2.4 | – | – | – | – |
| COc1cc(CNCCc2ccc(O)cc2)ccc1OCc1ccccc1 [Compound 1, N-(4-benzyloxy-3-methoxybenzyl)-2-(4-hydroxyphenyl)ethan-1-amine] | > 100 | 30.4 ± 2.1 | 0.36 ± 0.03 | >277 | 98.7 ± 0.3 | 186 ± 14 | – | – | – |
| COc1ccc(CCNCc2ccc(OCc3ccccc3)c(OC)c2)cc1 [Compound 11, {[4-(benzyloxy)-3-methoxyphenyl]methyl}[2-(4-methoxyphenyl)ethyl]amine] | > 100 | 27.9 ± 0.7 | 2.39 ± 0.27 | >41 | 93.5 ± 0.3 | – | – | – | – |
| CCOc1cc(CNCCc2ccccc2)ccc1OC [Compound 18, N-(3-ethoxy-4-methoxybenzyl)-2-phenylethan-1-amine] | > 100 | 0 | 41.1 ± 2.6 | >2 | 60 ± 1.6 | – | – | – | – |
| C=CCOc1ccc(CCN(CC=C)Cc2ccc(OCc3ccccc3)c(OC)c2)cc1 [Compound 5, N-allyl-N-(4-benzyloxy-3-methoxybenzyl)-2-(4-allyloxyphenyl)ethan-1-amine] | > 100 | 3.4 ± 0.5 | > 100 | – | 38.9 ± 0.9 | – | – | no inhibition potency | no inhibition potency; also recorded: inactive |
| COc1ccc(CCNCc2ccc(OC)c(OCc3ccccc3)c2)cc1 [Compound 12, N-(3-benzyloxy-4-methoxybenzyl)-2-(4-methoxyphenyl)ethan-1-amine] | > 100 | 0 | 1.12 ± 0.11 | >89 | 94.6 ± 0.6 | – | – | – | – |
| C=CCN(CCc1ccc(O)cc1)Cc1ccc(OC)c(OCC)c1 [Compound 16, N-allyl-N-(3-ethoxy-4-methoxybenzyl)-2-(4-hydroxyphenyl)ethan-1-amine] | > 100 | 28.3 ± 1.1 | 1.21 ± 0.08 | >82 | 91.7 ± 0.4 | – | – | – | – |
